Measured values reported in patent publication US6525001B1, “Substituted pyrimidine and pyridine herbicides” (Mid-American Commercialization Corporation, priority 1997, dated 2003).

Assays:
Assay type in all cases: in vivo
[1] = tested on: bedstraw (Galium aparine); test: Test B pre-/postemergence; set-up: key: 0 is no effect; 10 is complete control; details: for Bedstraw plant response rating: Preemergence
From the text: (§1) Seeds of bedstraw (Galium aparine), blackgrass (Alopecurus myosuroides), broadleaf signalgrass (Brachiaria decumbens), cocklebur (Xanthium strumarium), corn (Zea mays), crabgrass (Digitaria sanguinalis), giant foxtail (Setaria faberii), lambsquarters (Chenopodium album), momingglory (Ipomoea hederacea), pigweed (Amaranthus retroflexus), rape (Brassica napus), soybean (Glycine max), sugar beet (Beta vulgaris), velvetleaf (Abutilon theophrasti), wheat (Triticum aestivum), wild oat (Avena fatua) and purple nutsedge (Cyperus rotundus) tubers were planted and treated preemergence with test chemicals formulated in a non-phytotoxic solvent mixture which included a surfactant.
(§2) At the same time, these crop and weed species were also treated with postemergence applications of test chemicals formulated in the same manner. Plants ranged in height from 2 to 18 cm (1- to 4-leaf stage) for postemergence treatments. Plant species in the flood test consisted of rice (Oryza sativa), smallflower flatsedge (Cyperus difformis), duck salad (Heteranthera limosa) and bamyardgrass (Echinochloa crus-galli) grown to the 2-leaf stage for testing. Treated plants and controls were maintained in a greenhouse for twelve to sixteen days, after which all species were compared to controls and visually evaluated. Plant response ratings, summarized in Table B, are based on a scale of 0 to 10 where 0 is no effect and 10 is complete control. A dash (−) response means no test result.

[2] = tested on: blackgrass (Alopecurus myosuroides); test: Test B pre-/postemergence; set-up: key: 0 is no effect; 10 is complete control; details: for Blackgrass plant response rating: Preemergence
From the text: as §1, §2

[3] = tested on: broadleaf signalgrass (Brachiaria decumbens); test: Test B pre-/postemergence; set-up: key: 0 is no effect; 10 is complete control; details: for B. signalgrass plant response rating: Preemergence
From the text: as §1, §2

[4] = tested on: cocklebur (Xanthium strumarium); test: Test B pre-/postemergence; set-up: key: 0 is no effect; 10 is complete control; details: for Cocklebur plant response rating: Preemergence
From the text: as §1, §2

corn (Zea mays) = test: Test B pre-/postemergence; set-up: key: 0 is no effect; 10 is complete control; details: for Corn plant response rating: Preemergence
From the text: as §1, §2

[5] = tested on: crabgrass (Digitaria sanguinalis); test: Test B pre-/postemergence; set-up: key: 0 is no effect; 10 is complete control; details: for Crabgrass plant response rating: Preemergence
From the text: as §1, §2

[6] = tested on: giant foxtail (Setaria faberii); test: Test B pre-/postemergence; set-up: key: 0 is no effect; 10 is complete control
From the text: as §1, §2

[7] = tested on: momingglory (Ipomoea hederacea); test: Test B pre-/postemergence; set-up: key: 0 is no effect; 10 is complete control
From the text: as §1, §2

[8] = tested on: pigweed (Amaranthus retroflexus); test: Test B pre-/postemergence; set-up: key: 0 is no effect; 10 is complete control
From the text: as §1, §2

[9] = tested on: purple nutsedge (Cyperus rotundus); test: Test B pre-/postemergence; set-up: key: 0 is no effect; 10 is complete control
From the text: as §1, §2

rape (Brassica napus) = test: Test B pre-/postemergence; set-up: key: 0 is no effect; 10 is complete control
From the text: as §1, §2

soybean (Glycine max) = test: Test B pre-/postemergence; set-up: key: 0 is no effect; 10 is complete control
From the text: as §1, §2

[10] = tested on: sugar beet (Beta vulgaris); test: Test B pre-/postemergence; set-up: key: 0 is no effect; 10 is complete control
From the text: as §1, §2

[11] = tested on: velvetleaf (Abutilon theophrasti); test: Test B pre-/postemergence; set-up: key: 0 is no effect; 10 is complete control
From the text: as §1, §2

[12] = tested on: wheat (Triticum aestivum); test: Test B pre-/postemergence; set-up: key: 0 is no effect; 10 is complete control
From the text: as §1, §2

wild oat (Avena fatua) = test: Test B pre-/postemergence; set-up: key: 0 is no effect; 10 is complete control
From the text: as §1, §2

[13] = tested on: bamyardgrass (Echinochloa crus-galli); test: Test B flood test
Outline: (§3)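 Plants were grown to the 2-leaf stage before treatment with test chemical, then held in a greenhouse for twelve to sixteen days. Injury was visually rated against untreated controls on a 0–10 scale, where 0 is no effect and 10 is complete control.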

[14] = tested on: duck salad (Heteranthera limosa); test: Test B flood test
Outline: as §3

rice (Oryza sativa) = test: Test B flood test
Outline: as §3

[15] = tested on: smallflower flatsedge (Cyperus difformis); test: Test B flood test
Outline: as §3

[16] = Rate 250 g/ha, Postemergence (so in the source)
[17] = Rate 62 g/ha, Postemergence (flood test)
[18] = Rate 125 g/ha, Postemergence, flood test
[19] = Rate 250 g/ha, Postemergence (flood test species)
[20] = Rate 125 g/ha, Postemergence section (flood test species)

## Cc1cnc(-c2ccc(Cl)cc2F)nc1Cc1cccc(C(F)(F)F)c1 [Compound 29]
[1]; Rate 62 g/ha, Postemergence
  Plant response rating, Bedstraw: 2
[1]; Rate 62 g/ha
  Bedstraw plant response rating: 0
[1]; Rate 125 g/ha, Postemergence
  Plant response rating, Bedstraw: 9
[1]; Rate 125 g/ha
  Bedstraw plant response rating: 1
[1]; Rate 250 g/ha, Postemergence
  Plant response rating, Bedstraw: 9
[1]; [16]
  Plant response rating, Bedstraw: 3
[2]; Rate 62 g/ha, Postemergence
  Plant response rating, Blackgrass: 2
[2]; Rate 62 g/ha
  Blackgrass plant response rating: 1
[2]; Rate 125 g/ha, Postemergence
  Plant response rating, Blackgrass: 3
[2]; Rate 125 g/ha
  Blackgrass plant response rating: 1
[2]; Rate 250 g/ha, Postemergence
  Plant response rating, Blackgrass: 5
[2]; [16]
  Plant response rating, Blackgrass: 3
[3]; Rate 62 g/ha, Postemergence
  Plant response rating, B. signalgrass: 3
[3]; Rate 62 g/ha
  B. signalgrass plant response rating: 1
[3]; Rate 125 g/ha, Postemergence
  Plant response rating, B. signalgrass: 3
[3]; Rate 125 g/ha
  B. signalgrass plant response rating: 3
[3]; Rate 250 g/ha, Postemergence
  Plant response rating, B. signalgrass: 5
[3]; Rate 250 g/ha, Postemergence as printed in head r139 (second section for compounds 26-50)
  Plant response rating, B. signalgrass: 4
[4]; Rate 62 g/ha, Postemergence
  Plant response rating, Cocklebur: 6
[4]; Rate 62 g/ha
  Cocklebur plant response rating: 0
[4]; Rate 125 g/ha, Postemergence
  Plant response rating, Cocklebur: 6
[4]; Rate 125 g/ha
  Cocklebur plant response rating: 0
[4]; Rate 250 g/ha, Postemergence
  Plant response rating, Cocklebur: 8
[4]; [16]
  Plant response rating, Cocklebur: 0
Corn (Zea mays); Rate 62 g/ha, Postemergence
  Plant response rating, Corn: 2
Corn (Zea mays); Rate 62 g/ha
  Corn plant response rating: 0
Corn (Zea mays); Rate 125 g/ha, Postemergence
  Plant response rating, Corn: 2
Corn (Zea mays); Rate 125 g/ha
  Corn plant response rating: 0
Corn (Zea mays); Rate 250 g/ha, Postemergence
  Plant response rating, Corn: 3
Corn (Zea mays); [16]
  Plant response rating, Corn: 0
[5]; Rate 62 g/ha, Postemergence
  Plant response rating, Crabgrass: 4
[5]; Rate 62 g/ha
  Crabgrass plant response rating: 2
[5]; Rate 125 g/ha, Postemergence
  Plant response rating, Crabgrass: 6
[5]; Rate 125 g/ha
  Crabgrass plant response rating: 4
[5]; Rate 250 g/ha, Postemergence
  Plant response rating, Crabgrass: 9
[5]; [16]
  Plant response rating, Crabgrass: 7
[6]; Rate 62 g/ha, Postemergence
  Plant response rating, Giant foxtail: 3
[6]; Rate 62 g/ha, Preemergence
  Giant foxtail plant response rating: 1
[6]; Rate 125 g/ha, Postemergence
  Giant foxtail plant response rating: 4
[6]; Rate 125 g/ha, Preemergence
  Giant foxtail plant response rating: 4
[6]; Rate 250 g/ha, Postemergence
  Plant response rating, Giant foxtail: 4
[6]; [16]
  Plant response rating, Giant foxtail: 9
[7]; Rate 62 g/ha, Postemergence
  Plant response rating, Morningglory: 8
[7]; Rate 62 g/ha, Preemergence
  Morningglory plant response rating: 0
[7]; Rate 125 g/ha, Postemergence
  Morningglory plant response rating: 10
[7]; Rate 125 g/ha, Preemergence
  Morningglory plant response rating: 2
[7]; Rate 250 g/ha, Postemergence
  Plant response rating, Morningglory: 10
[7]; [16]
  Plant response rating, Morningglory: 3
[8]; Rate 62 g/ha, Postemergence
  Plant response rating, Redroot pigweed: 8
[8]; Rate 62 g/ha, Preemergence
  Redroot pigweed plant response rating: 0
[8]; Rate 125 g/ha, Postemergence
  Redroot pigweed plant response rating: 10
[8]; Rate 125 g/ha, Preemergence
  Redroot pigweed plant response rating: 3
[8]; Rate 250 g/ha, Postemergence
  Plant response rating, Redroot pigweed: 10
[8]; [16]
  Plant response rating, Redroot pigweed: 3
[9]; Rate 62 g/ha, Postemergence
  Plant response rating, Nutsedge: 0
[9]; Rate 62 g/ha, Preemergence
  Nutsedge plant response rating: 0
[9]; Rate 125 g/ha, Postemergence
  Nutsedge plant response rating: 0
[9]; Rate 125 g/ha, Preemergence
  Nutsedge plant response rating: 0
Rape (Brassica napus); Rate 62 g/ha, Postemergence
  Plant response rating, Rape: 8
Rape (Brassica napus); Rate 62 g/ha, Preemergence
  Rape plant response rating: 1
Rape (Brassica napus); Rate 125 g/ha, Postemergence
  Rape plant response rating: 9
Rape (Brassica napus); Rate 125 g/ha, Preemergence
  Rape plant response rating: 1
Rape (Brassica napus); Rate 250 g/ha, Postemergence
  Plant response rating, Rape: 9
Rape (Brassica napus); [16]
  Plant response rating, Rape: 1
Soybean (Glycine max); Rate 62 g/ha, Postemergence
  Plant response rating, Soybean: 3
Soybean (Glycine max); Rate 62 g/ha, Preemergence
  Soybean plant response rating: 0
Soybean (Glycine max); Rate 125 g/ha, Postemergence
  Soybean plant response rating: 4
Soybean (Glycine max); Rate 125 g/ha, Preemergence
  Plant response rating, Soybean: 0
Soybean (Glycine max); Rate 250 g/ha, Postemergence
  Plant response rating, Soybean: 7
Soybean (Glycine max); [16]
  Plant response rating, Soybean: 0
[10]; Rate 62 g/ha, Postemergence
  Plant response rating, Sugarbeets: 9
[10]; Rate 62 g/ha, Preemergence
  Sugarbeets plant response rating: 0
[10]; Rate 125 g/ha, Postemergence
  Sugarbeets plant response rating: 9
[10]; Rate 125 g/ha, Preemergence
  Plant response rating, Sugarbeets: 3
[10]; Rate 250 g/ha, Postemergence
  Plant response rating, Sugarbeets: 10
[10]; [16]
  Plant response rating, Sugarbeets: 4
[11]; Rate 62 g/ha, Postemergence
  Plant response rating, Velvetleaf: 3
[11]; Rate 62 g/ha, Preemergence
  Velvetleaf plant response rating: 0
[11]; Rate 125 g/ha, Postemergence
  Velvetleaf plant response rating: 3
[11]; Rate 125 g/ha, Preemergence
  Plant response rating, Velvetleaf: 0
[11]; Rate 250 g/ha, Postemergence
  Plant response rating, Velvetleaf: 4
[11]; [16]
  Plant response rating, Velvetleaf: 0
[12]; Rate 62 g/ha, Postemergence
  Wheat plant response rating: 2
[12]; Rate 62 g/ha, Preemergence
  Wheat plant response rating: 0
[12]; Rate 125 g/ha, Postemergence
  Wheat plant response rating: 3
[12]; Rate 125 g/ha, Preemergence
  Plant response rating, Wheat: 0
[12]; Rate 250 g/ha, Postemergence
  Plant response rating, Wheat: 4
[12]; [16]
  Plant response rating, Wheat: 0
Wild oat (Avena fatua); Rate 62 g/ha, Postemergence
  Wild oats plant response rating: 1
Wild oat (Avena fatua); Rate 62 g/ha, Preemergence
  Wild oats plant response rating: 0
Wild oat (Avena fatua); Rate 125 g/ha, Postemergence
  Wild oats plant response rating: 2
Wild oat (Avena fatua); Rate 125 g/ha, Preemergence
  Plant response rating, Wild oats: 0
Wild oat (Avena fatua); Rate 250 g/ha, Postemergence
  Plant response rating, Wild oats: 4
Wild oat (Avena fatua); [16]
  Plant response rating, Wild oats: 1
[13]; [17]
  Plant response rating, Barnyardgrass: 2
[13]; [18]
  Plant response rating, Barnyardgrass: 3
[13]; [19]
  Plant response rating, Barnyardgrass: 4
[14]; [17]
  Plant response rating, Ducksalad: 1
[14]; [18]
  Plant response rating, Ducksalad: 3
[14]; [19]
  Plant response rating, Ducksalad: 4
Rice (Oryza sativa); [17]
  Plant response rating, Rice: 1
Rice (Oryza sativa); [20]
  Rice plant response rating: 2
Rice (Oryza sativa); [19]
  Plant response rating, Rice: 3
[15]; [17]
  Plant response rating, S. Flatsedge: 1
[15]; [20]
  S. Flatsedge plant response rating: 6
[15]; [19]
  Plant response rating, S. Flatsedge: 8
